Data from PubChem BioAssay AID2305 (GlaxoSmithKline (GSK), 2010).

Test system: P. falciparum 3D7 growth, pLDH absorbance
Test: blood-stage malaria parasite growth potency – strain 3D7, dose response (AID 2305)

| Compound | IC50 [nM] |
| --- | --- |
| CC(C)c1ccc(C(NC(=O)C2CCCCC2)c2ccc3cccnc3c2O)cc1 (centres undefined) | 600 |
| FC(F)(F)c1ccc2nc(-c3cccc(-c4cccc(CNCCN5CCNCC5)c4)c3)[nH]c2c1 | 940 |
| Cc1ccc2nc(NC#N)[nH]c2c1 | 1150 |
| O=C(Cc1cccc(O)c1)Nc1ccc(-c2cccc(-c3nc4ccc(C(F)(F)F)cc4[nH]3)c2)cc1 | 980 |
| NC1=NC2(CCCC2)C(c2ccc(Cl)c(Cl)c2)C(N)=N1 (centres undefined) | 990 |
| O=C(Nc1ccc([N+](=O)[O-])cc1O)Nc1ccccc1Oc1ccccc1 | 930 |
| CCNc1cc(C(=O)N[C@@H](Cc2ccccc2)[C@H](O)CNCCc2cccc3ccccc23)cc(N2CCCC2=O)c1 | 980 |
| Oc1ccc(-c2ccccc2)cc1CNC1CCCCC1 | 500 |
| CCCCCC(NCCCC)c1ccc(OCCOc2ccc(C(CCCCC)NCCCC)cc2)cc1 (centres undefined) | 1240 |
| COc1ccc(CCNCc2ccc3nc(N)cc(C)c3c2)cc1 | 210 |
| Cc1nc2ccc3ccc(CNc4ccc5c(c4)CN([C@H](CCC(=O)O)C(=O)O)C5=O)cc3c2c(=O)[nH]1 | 860 |
| CC[C@H]1CN2CCc3cc(OC)c(OC)cc3[C@@H]2C[C@@H]1C[C@H]1NCCc2c1cc(OC)c(O)c2Cl | 140 |
| Fc1ccc2nc(-c3ccc(-c4ccc(CN5CCN(CCN6CCOCC6)CC5)cc4)s3)[nH]c2c1 | 150 |
| COc1cccc([C@@H](CC(=O)Nc2cc(C(F)(F)F)ccc2OC)Nc2ccc(C#N)c3ccccc23)c1 | 990 |
| CCCCCCCN1CC[C@@H](C[C@H](N)Cc2ccnc3ccc(OC)cc23)[C@@H](CC)C1 | 1070 |
| COc1ccc(C=C2SC(=O)NC2=Nc2ccccc2)c(OC)c1 | 470 |
| O=C(NCCCCN1CCC(c2ccc3c(c2OCC2CC2)CCCC3)CC1)c1ccc(NC(=O)c2ccc(Cl)cc2)cc1 | 680 |
| Cc1ccc(NC(=O)N2CCCN(CCCCCNC(=O)/C=C/c3ccc(Cl)c(Cl)c3)CC2)cc1C | 770 |
| CCNc1cc(C)nc(Nc2ccc(NC(=O)c3cccs3)cc2)n1 | 1020 |
| CCOC(=O)N1CCN(CCCCCNc2cc(C)nc(/N=C(\N)Nc3ccc(Cl)cc3)n2)CC1 | 150 |
| Cc1ccc(N2CCN(C(=O)c3cccc(-c4cncc5nc(-c6ccco6)n(C)c45)c3)CC2)nc1 | 600 |
| COc1ccc2nc(C)cc(NN=Cc3ccccc3F)c2c1 | 370 |
| CN(C)CCN(C)Cc1ccc(-c2ccc3c(Nc4ccc(Cl)cc4F)ccnc3c2)o1 | 360 |
| O=S(=O)(c1cccc2cccnc12)N1CCN(C2CCCCC2)CC1 | 760 |
| Cc1ccc(C)c(Cn2ccc3nc(N)nc(N)c32)c1 | 300 |

| Compound | IC50 [nM] |
| --- | --- |
| O=C(Nc1ccc(CN2CCCCC2)cc1)c1ccc(COc2ccc([N+](=O)[O-])cc2)o1 | 1000 |
| Cc1ccccc1C1CCN(C2CCC(NC(=O)c3ccc(-c4cccc(C(F)(F)F)c4)o3)CC2)CC1 (centres undefined) | 350 |
| Cc1cccc2[nH]c(-c3ccc(-c4cccc(CN5CC(C)OC(C)C5)c4)s3)nc12 (centres undefined) | 760 |
| COc1cc2nc(N3CCC(CCCC4CCNCC4)CC3)nc(NCc3ccccn3)c2cc1OC | 760 |
| Nc1c2ccccc2nc2cc([N+](=O)[O-])ccc12 | 870 |
| CN(C)CCCNc1ncnc2c1[nH]c1ccc(F)cc12 | 730 |
| COc1cc(C(=O)NC2CCN(Cc3ccccc3)CC2)ccc1-c1cc2cc(Cl)c(Cl)cc2[nH]1 | 230 |
| Cc1cc(NCCC(=O)NCCOc2ccccc2)nc(NCc2ccccc2C)n1 | 870 |
| CC(C)N(CCOc1ccc2c(c1)N(C(=O)Nc1cc(Br)cc(C(F)(F)F)c1)CC2)C(C)C | 110 |
| O=C(Cc1cnc[nH]1)Nc1cccc(-c2ccc(-c3nc4ccc(C(F)(F)F)cc4[nH]3)cc2)c1 | 700 |
| Cc1cc(NN=Cc2ccccc2[N+](=O)[O-])c2ccc(F)cc2n1 | 350 |
| O=[N+]([O-])c1ccc(Nc2nc(NN=Cc3cc(Cl)cc(Cl)c3O)nc(Nc3ccccc3)n2)cc1 | 670 |
| CN(C)c1cccc(CN2CC=C(c3c[nH]c4ccc(Cl)cc34)CC2)c1 | 660 |
| COc1ccccc1CNC(=O)c1cc(Br)cc(N2CCN(c3ccncc3)CC2)c1 | 950 |
| Cc1nc(-c2cccc(Nc3nccc(NCC(O)c4ccccc4C)n3)c2)cs1 (centres undefined) | 890 |
| OC(CNC1CCCCCCC1)c1ccc(Cl)c(Cl)c1 (centres undefined) | 210 |
| Cc1cnc(Nc2ccccc2)nc1N[C@@H](CCCN)C(=O)Nc1ccccc1 | 810 |
| CC(Oc1cc(-n2cnc3ccc(NC(=O)CCN4CCCCC4)cc32)sc1C(N)=O)c1ccccc1Cl (centres undefined) | 400 |
| CC(C)N1CCC(N(Cc2ccc(-c3ccc(C(F)(F)F)cc3)cc2)C(=O)CCCn2c(CCc3cccc(F)c3F)nc(=O)c3ccccc32)CC1 | 970 |
| O=C(Nc1ccc(I)cc1)N1CCc2sccc2C1CN1CCCCC1 (centres undefined) | 1200 |
| COc1cc2c(cc1OC)C(C(=O)Nc1ccc(C(F)(F)F)cc1)C(c1cccs1)N(C)C2=O (centres undefined) | 160 |
| O=C(Nc1ccc(N2CCC(Nc3ccccn3)CC2)cc1)c1cnc(Cl)c(Cl)c1 | 1190 |
| COc1ccc(CNc2nc(NCCc3ccccc3)c3cc(OC)c(OC)cc3n2)cc1OC | 180 |
| CCCCOC(=O)C1=C(C)NC2=C(C(=O)CCC2)C1c1ccc(OC)c(Br)c1 (centres undefined) | 600 |
| NC(N)=Nc1ccc(CCc2ccc(N=C(N)N)cc2)cc1 | 290 |

| Compound | IC50 [nM] |
| --- | --- |
| COc1ccc2c(=O)c3ccc(OC)cc3[nH]c2c1 | 810 |
| CCc1nnc2sc(-c3cccc(NC(=O)c4ccc(OC)c(Cl)c4)c3)nn12 | 1140 |
| COc1cccc(CN2CCC(C(=O)Nc3ccc(-c4nc5ccccc5[nH]4)cc3)CC2)c1 | 630 |
| COc1ccc(C2C(C(=O)OC3CCCCC3)=C(C)NC3=C2C(=O)CCC3)cc1Br (centres undefined) | 580 |
| CN1CCN(c2ccc(Nc3ncc([N+](=O)[O-])c(Nc4ccccc4O)n3)cc2)CC1 | 720 |
| COc1ccccc1CC(C)NCC(O)c1cccc(Cl)c1 (centres undefined) | 810 |
| O=C(Nc1ccc(C(F)(F)F)cc1)NC1CCN(c2ccnc3cc(Cl)ccc23)C1 (centres undefined) | 140 |
| CCN(CC)CC(O)Cc1c2ccc([N+](=O)[O-])cc2nc2cc(OC)c(OC)cc12 (centres undefined) | 740 |
| CC(C)NCc1cccc(-c2ccc(NC(=O)c3cccc(C#N)c3)cc2)c1 | 320 |
| CN1CCCCC1CCc1cc(C(=O)Nc2ccc(-c3ccc(O)cc3)cc2)ccc1O (centres undefined) | 1110 |
| COc1cc(CNc2ccc(N3CCCC3)cc2)cc(Cl)c1OC | 700 |
| CCNC(=O)Nc1ccc(N(C)c2ccnc(Nc3ccc(CS(C)(=O)=O)cc3)n2)cc1 | 90 |
| CCC(C)(C)c1ccc(OCCCC(=O)Nc2ccc(Cl)c([N+](=O)[O-])c2)c(C(C)(C)CC)c1 | 970 |
| OC1(C(F)(F)F)CC(c2ccccc2)=NN1c1nncc(-c2ccccc2)n1 (centres undefined) | 730 |
| CN1CCN(Cc2ccc(-c3ccc4c(Nc5ccc(Oc6ccccc6)cc5)ccnc4c3)o2)CC1 | 180 |
| CCCCN(C(=O)c1ccccc1Cl)c1nnc(-c2ccccc2C)s1 | 1020 |
| O=C(C=Cc1ccc(Cl)c(Cl)c1)NCCCCCN1CCCC(CCCNS(=O)(=O)c2ccc(Br)cc2)C1 (centres undefined) | 960 |
| O=C(/C=C/c1cc(C(F)(F)F)ccc1F)NCCCCCN1CCC(c2c[nH]c3ccccc23)CC1 | 1130 |
| CN1CCC(NCc2ccc(-c3ccc(Cl)cc3)cc2)CC1 | 750 |
| O=C1OC2(CN1CC1CCN(Cc3ccc(O)cc3Cl)C1)c1ccccc1-c1ccccc12 (centres undefined) | 1170 |
| Cc1cc(C=C(P(=O)(OC(C)C)OC(C)C)P(=O)(OC(C)C)OC(C)C)c2ccccc2c1O | 1080 |
| CC(=O)c1c(Cc2ccccc2Cl)c[nH]c1C | 850 |
| CC(C)NCc1cccc(-c2ccc(NS(=O)(=O)c3cccc4cccnc34)cc2)c1 | 1080 |
| N#Cc1ccc(-c2ccc(C(=O)NCCCCN3CCC(n4cnc5ccccc54)CC3)cc2)cc1 | 910 |
| Nc1nc(-c2ccccn2)nc(-n2nc(-c3cccc(C(F)(F)F)c3)cc2N)n1 | 1040 |

| Compound | IC50 [nM] |
| --- | --- |
| CC(C)CC(NC(=O)c1cc2ccccc2s1)C(=O)N1CCCCCC1c1ccc(C(C)(C)C)cc1 (centres undefined) | 860 |
| CCC(=O)Nc1ccc(C(O)CN2CCC3(C=Cc4ccccc4O3)CC2)cc1 (centres undefined) | 1200 |
| CC(C)(C)c1ccc(NC(=O)c2ccc(CN3CCCN(Cc4cccc(C#N)c4)CC3)cc2)cc1 | 640 |
| COc1ccc(C(C(=O)NC2CCN(C[C@H](O)c3ccnc4ccc(OC)cc34)CC2)N2CCN(c3ccc(Cl)c(Cl)c3)CC2)cc1 (some centres undefined) | 200 |
| Cn1nc(-c2cccc(CN[C@@H]3CCc4ccc(O)cc43)c2)c2cnc(NCCCN3CCCC3)nc21 | 830 |
| Cc1noc(C)c1-c1ccc2c(Nc3nccc4ccccc34)c(C(N)=O)cnc2c1 | 890 |
| COC(=O)c1cccc(NC(=O)NC2CCN(c3ccnc(NCc4ccc(F)cc4)n3)CC2)c1 | 810 |
| c1csc(-c2nc(N3CCCC3)ncc2-c2ccsc2)n1 | 210 |
| Cc1cc2[nH]c(-c3ccc(C(=O)NCCCN4CCN(c5cccc(Cl)c5)CC4)cc3F)nc2cc1Cl | 480 |
| CN1CCC(NCc2ccc(-c3cccc(-c4nc5ccccc5[nH]4)c3)cc2)CC1 | 130 |
| CC(C)C[C@H](NC(=O)c1ccc(OCCN2CCOCC2)cc1)C(=O)N[C@H](/C=N/NC(=O)OC(C)(C)C)CCc1ccccc1 | 160 |
| COc1cccc(NC(=O)Cn2c(C)c(C#N)c3ccccc32)c1 | 880 |
| CC1CN(CC(O)Cn2c3ccc(Br)cc3c3cc(Br)ccc32)CC(C)O1 (centres undefined) | 780 |
| COc1ccc(N2C(=O)C3C(C2=O)C2(C)c4ccccc4C3(C)c3ccccc32)c([N+](=O)[O-])c1 (centres undefined) | 720 |
| O=C(Nc1c(F)cccc1F)c1cccc(-c2nn3ccccc3c2-c2ccnc(Nc3cccc(-c4cnco4)c3)n2)c1 | 360 |
| Cc1ccc2[nH]c(C3CCCNC3)c(-c3ccncc3)c2c1 (centres undefined) | 1230 |
| CCOC(=O)C(C)(C)Oc1ccc(CN(Cc2ccc(CC(C)C)cc2)C(=O)Nc2ccc(F)cc2F)c(OC)c1 | 240 |
| Cc1ccc(CNC(=O)c2ccc(CN3CCCN(Cc4ccsc4)CC3)cc2)cc1 | 870 |
| COc1ccc2nccc([C@@H](O)CN3CCC(NCc4cc5ccccc5nn4)CC3)c2c1 | 1200 |
| CCc1cccc(-n2c(=O)c3cccnc3n2CC(=O)NCc2ccccc2Cl)c1 | 740 |
| O=C1Nc2cccc3c2C1(CCCCN1CCC(c2c(-c4ccc(F)cc4)[nH]c4ccccc24)CC1)CCC3 (centres undefined) | 1190 |
| O=C(Cc1cnc[nH]1)Nc1cccc(-c2ccc(-c3nc4ccc(F)cc4[nH]3)s2)c1 | 660 |
| O=C(NCCc1ccc(Cl)c(Cl)c1)[C@@H]1CCCN1C(=O)c1ccc(O)c(-c2cccc(C(F)(F)F)c2)c1 | 820 |
| Cc1ccc(/C=C/C(=O)N2CCC(CCN3CCC(c4c[nH]c5ccccc45)CC3)CC2)cc1C | 930 |
